Data from patent US12485132B2, “GPX4 inhibitors and senolytic compounds and uses thereof” (Rubedo Life Sciences, Inc., priority 2023, dated 2025).

Tested on: senescent HEPG2 cells
Assay: Senescence assay: viability of senescent HEPG2 cells
Type: cell-based
Conditions: Homo sapiens, 24-72 hours incubation, viability by CellTiter-Glo or XTT, read-out: Absolute IC50 average HEPG2_SEN IC50
Experimental: Cells were maintained in DMEM media (high glucose, 4 mM L-glutamine, no sodium pyruvate) supplemented with 10% fetal bovine serum in a humidified incubator at 37° C. with 5% carbon dioxide. Senescence was induced via treatment with a sublethal concentration of chemotherapy (bleomycin, gemcitabine, doxorubicin, 5-fluorouridine), followed by a rest period without chemotherapy similarly to what is reported by others in the field (e.g., Aoshiba et al., 2003 Eur Respir J 22:436-443). Senescence was qualified by low EdU (5-ethynyl-2′-deoxyuridine) incorporation and high SA-β-Gal (senescence-associated beta-galactosidase) staining compared to proliferating untreated cells. Senescent cells were plated into 96-well plates at a density of 5-15,000 cells/well. The next day, compounds were added in duplicate across ten different concentrations spanning roughly four Log10 units. Cells were incubated with the compounds for 24-72 hours, at which point viability was quantified using CellTiter-Glo (Promega) or XTT (R&D Systems). The viability for treated cells was determined relative to untreated control cells. The log of the compound concentration vs. normalized mean viability was fit to a four parameters Hill function with variable slope. The bottom was constrained to be greater than zero. The X mean value for Y=50 was interpolated to determine the absolute IC50. The results in Table 2 indicate that many of the compounds are active in cells and can induce a dose dependent decrease in the viability of senescent HEPG2 and A549 cells.

Q: Which IC50 does the source give for `C#CC(F)(F)[C@]1(O)CC[C@H]2[C@@H]3CCC4=C/C(=N/NC(=O)COC)CCC4=C3[C@H](c3ccc(C4CC4)cc3)C[C@@]21C` [Compound 36, N′-((8S,11S,13S,14S,17S,E)-11-(4-cyclopropylphenyl)-17-(1,1-difluoroprop-2-yn-1-yl)-17-hydroxy-13-methyl-1,2,6,7,8,11,12,13,14,15,16,17-dodecahydro-3H-cyclopenta[a]phenanthren-3-ylidene)-2-methoxyacetohydrazide] here?
A: Its IC50 is 0.0001 to 0.01 µM.

Q: With `C#CC(F)(F)[C@]1(O)CC[C@H]2[C@@H]3CCC4=C/C(=N/NC(=O)CN)CCC4=C3[C@H](c3ccc(C4CC4)cc3)C[C@@]21C` [Compound 35, 2-amino-N′-((8S,11S,13S,14S,17S,E)-11-(4-cyclopropylphenyl)-17-(1,1-difluoroprop-2-yn-1-yl)-17-hydroxy-13-methyl-1,2,6,7,8,11,12,13,14,15,16,17-dodecahydro-3H-cyclopenta[a]phenanthren-3-ylidene)acetohydrazide] as the molecule, how does the IC50 read?
A: Its IC50 is 0.0001 to 0.01 µM.

Q: With `C#CC(F)(F)[C@]1(O)CC[C@H]2[C@@H]3CCC4=C/C(=N/OCCOCCOCCOC)CCC4=C3[C@@H](c3ccc(C4CC4)cc3)C[C@@]21C` [Compound 15, (8S,11R,13S,14S,17S,E)-11-(4-cyclopropylphenyl)-17-(1,1-difluoroprop-2-yn-1-yl)-17-hydroxy-13-methyl-1,2,6,7,8,11,12,13,14,15,16,17-dodecahydro-3H-cyclopenta[a]phenanthren-3-one O-(2-(2-(2-methoxyethoxy)ethoxy)ethyl)oxime] as the molecule, how does the IC50 read?
A: The IC50 was 0.01 to 0.1 µM.

Q: How did the IC50 turn out when `C#CC(F)(F)[C@]1(O)CC[C@H]2[C@@H]3CCC4=C/C(=N\OCCOCCO)CCC4=C3[C@@H](c3ccc(C4CC4)cc3)C[C@@]21C` [Compound 11, (8S,11R,13S,14S,17S,Z)-11-(4-cyclopropylphenyl)-17-(1,1-difluoroprop-2-yn-1-yl)-17-hydroxy-13-methyl-1,2,6,7,8,11,12,13,14,15,16,17-dodecahydro-3H-cyclopenta[a]phenanthren-3-one O-(2-(2-hydroxyethoxy)ethyl)oxime] was run?
A: The IC50 was 0.0001 to 0.01 µM.

Q: Which IC50 does the source give for `C#CC(F)(F)[C@]1(O)CC[C@H]2[C@@H]3CCC4=C/C(=N/OCCOC)CCC4=C3[C@@H](c3ccc(C4CC4)cc3)C[C@@]21C` [Compound 3, (8S,11R,13S,14S,17S,E)-11-(4-cyclopropylphenyl)-17-(1,1-difluoroprop-2-yn-1-yl)-17-hydroxy-13-methyl-1,2,6,7,8,11,12,13,14,15,16,17-dodecahydro-3H-cyclopenta[a]phenanthren-3-one O-(2-methoxyethyl)oxime] here?
A: The IC50 was 0.01 to 0.1 µM.

Q: For `C#CC(F)(F)[C@]1(O)CC[C@H]2[C@@H]3CCC4=C/C(=N\OCCOCCOCCOC)CCC4=C3[C@@H](c3ccc(C4CC4)cc3)C[C@@]21C` [Compound 14, (8S,11R,13S,14S,17S,Z)-11-(4-cyclopropylphenyl)-17-(1,1-difluoroprop-2-yn-1-yl)-17-hydroxy-13-methyl-1,2,6,7,8,11,12,13,14,15,16,17-dodecahydro-3H-cyclopenta[a]phenanthren-3-one O-(2-(2-(2-methoxyethoxy)ethoxy)ethyl)oxime], which IC50 is on record?
A: The IC50 was 0.0001 to 0.01 µM.

Q: How did the IC50 turn out when `C#CC(F)(F)[C@]1(O)CC[C@H]2[C@@H]3CCC4=C/C(=N/NC(=O)NCC5CC5)CCC4=C3[C@H](c3ccc(C4CC4)cc3)C[C@@]21C` [Compound 50, (E)-N-(cyclopropylmethyl)-2-((8S,11S,13S,14S,17S)-11-(4-cyclopropylphenyl)-17-(1,1-difluoroprop-2-yn-1-yl)-17-hydroxy-13-methyl-1,2,6,7,8,11,12,13,14,15,16,17-dodecahydro-3H-cyclopenta[a]phenanthren-3-ylidene)hydrazine-1-carboxamide] was run?
A: The IC50 was 0.0001 to 0.01 µM.

Q: For `C#CC(F)(F)[C@]1(O)CC[C@H]2[C@@H]3CCC4=C/C(=N/NC(=O)O[C@@H]5O[C@@H](C)[C@@H](OC(C)=O)[C@@H](OC(C)=O)[C@@H]5OC(C)=O)CCC4=C3[C@H](c3ccc(C4CC4)cc3)C[C@@]21C` [Compound 30, (2S,3S,4R,5R,6S)-2-((2-((8S,11S,13S,14S,17S,E)-11-(4-cyclopropylphenyl)-17-(1,1-difluoroprop-2-yn-1-yl)-17-hydroxy-13-methyl-1,2,6,7,8,11,12,13,14,15,16,17-dodecahydro-3H-cyclopenta[a]phenanthren-3-ylidene)hydrazine-1-carbonyl)oxy)-6-methyltetrahydro-2H-pyran-3,4,5-triyl triacetate], which IC50 is on record?
A: Its IC50 is 0.0001 to 0.01 µM.

Q: With `C#CC(F)(F)[C@]1(O)CC[C@H]2[C@@H]3CCC4=C/C(=N/O[C@@H]5O[C@@H](C)[C@@H](O)[C@@H](O)[C@@H]5O)CCC4=C3[C@@H](c3ccc(C4CC4)cc3)C[C@@]21C` [Compound 20, (8S,11R,13S,14S,17S,E)-11-(4-cyclopropylphenyl)-17-(1,1-difluoroprop-2-yn-1-yl)-17-hydroxy-13-methyl-1,2,6,7,8,11,12,13,14,15,16,17-dodecahydro-3H-cyclopenta[a]phenanthren-3-one O-((2S,3S,4R,5S,6S)-3,4,5-trihydroxy-6-methyltetrahydro-2H-pyran-2-yl) oxime] as the molecule, how does the IC50 read?
A: Its IC50 is 0.0001 to 0.01 µM.

Q: With `C#CC(F)(F)[C@]1(O)CC[C@H]2[C@@H]3CCC4=C/C(=N/N)CCC4=C3[C@H](c3ccc(C4CC4)cc3)C[C@@]21C` [Compound 27, (8S,11S,13S,14S,17S,E)-11-(4-cyclopropylphenyl)-17-(1,1-difluoroprop-2-yn-1-yl)-3-hydrazineylidene-13-methyl-2,3,6,7,8,11,12,13,14,15,16,17-dodecahydro-1H-cyclopenta[a]phenanthren-17-ol] as the molecule, how does the IC50 read?
A: The IC50 was 0.01 to 0.1 µM.

Q: For `C#CC(F)(F)[C@]1(O)CC[C@H]2[C@@H]3CCC4=C/C(=N/NC(=O)OCC)CCC4=C3[C@H](c3ccc(C4CC4)cc3)C[C@@]21C` [Compound 40, ethyl (E)-2-((8S,11S,13S,14S,17S)-11-(4-cyclopropylphenyl)-17-(1,1-difluoroprop-2-yn-1-yl)-17-hydroxy-13-methyl-1,2,6,7,8,11,12,13,14,15,16,17-dodecahydro-3H-cyclopenta[a]phenanthren-3-ylidene)hydrazine-1-carboxylate], which IC50 is on record?
A: The IC50 was 0.0001 to 0.01 µM.

Q: Which IC50 does the source give for `C#CC(F)(F)[C@]1(O)CC[C@H]2[C@@H]3CCC4=C/C(=N\OCCOC)CCC4=C3[C@@H](c3ccc(C4CC4)cc3)C[C@@]21C` [Compound 2, (8S,11R,13S,14S,17S,Z)-11-(4-cyclopropylphenyl)-17-(1,1-difluoroprop-2-yn-1-yl)-17-hydroxy-13-methyl-1,2,6,7,8,11,12,13,14,15,16,17-dodecahydro-3H-cyclopenta[a]phenanthren-3-one O-(2-methoxyethyl)oxime] here?
A: The IC50 was 0.01 to 0.1 µM.

Q: For `C#CC(F)(F)[C@]1(O)CC[C@H]2[C@@H]3CCC4=C/C(=N/O[C@H]5C[C@H](O)[C@H](O)[C@H](C)O5)CCC4=C3[C@H](c3ccc(C4CC4)cc3)C[C@@]21C` [Compound 5, (8S,11S,13S,14S,17S,E)-11-(4-cyclopropylphenyl)-17-(1,1-difluoroprop-2-yn-1-yl)-17-hydroxy-13-methyl-1,2,6,7,8,11,12,13,14,15,16,17-dodecahydro-3H-cyclopenta[a]phenanthren-3-one O-((2S,4S,5S,6S)-4,5-dihydroxy-6-methyltetrahydro-2H-pyran-2-yl) oxime], which IC50 is on record?
A: The IC50 was 0.01 to 0.1 µM.
